Where only a bound is given, the exact number is not on record here.

Test [1] relates to Listeria monocytogenes DP-L1942. As to the kind of experiment: In vitro intracellular infection assay in J774 cells. The format is cell-based. How it is done:
In vitro Intracellular Infection Assay: 100,000 cells/well J774 cells in DMEM supplemented with 10% FBS without pen-strep, referred to as normal growth media, were plated in a 24-well plate and incubated for 20-24 hrs before use. Listeria monocytogenes DP-L1942 strain was taken from an exponentially growing culture (OD600 of ˜0.5) and washed with 1×PBS pH 7.4. Macrophages were infected with 200,000 bacteria in normal growth media to achieve an initial infection of approximately two bacteria per cell (MOI=2). The cells were washed twice with PBS at 30 mins after infection and supplemented with normal growth media. At 1-hr post infection, gentamicin (50 μg/ml) was added to eliminate all extracellular bacteria. The cells were then washed twice with PBS after 30 mins of incubation and supplemented with normal growth media. At 2-hr post infection, 30 μM of CPOT-vancomycin conjugates were added to the infected cells and incubated for 4 hrs. At the end of the incubation period, macrophages were washed twice with PBS, and the cells were lysed with 0.1% Triton-X in PBS. The cell lysate was diluted 10× in Brain Heart Infusion (BHI) broth and plated in a 96-well plate. The plate was incubated at 37° C. with agitation. The growth curve kinetics were generated from the absorbance measurements at 600 nm taken every 5 mins for 14 hrs.

The test system of test [2] is HeLa cells. As to the kind of experiment: Live-cell confocal microscopy and time-lapse imaging. In kind it is cell-based, human. On the procedure:
Live-Cell confocal microscopy: 70,000 HeLa cells/chamber were plated in a 4-chamber 35-mm glass-bottom microwell dish ([…]) and cultured at 37° C. for 20-24 hrs. […] For co-localization experiments, cells were incubated with fluorescein conjugates along with 150 nM Transferrin-Alexa Fluor 647, or 150 μM Dextran-Alexa Fluor 647 for 1 hr at 37° C. Cells were gently washed 3 times with PBS, and FluoroBrite DMEM Media supplemented with 10% FBS was added to each chamber for imaging. Images were taken on a Zeiss LSM880 live-cell confocal/multiphoton inverted microscope, equipped with a 63× oil objective, with 488-nm and 633-nm lasers enabled for fluorescein and Transferrin-Alexa Fluor 647/Dextran-Alexa Fluor 647, respectively. Images were processed using Fiji software. Time-lapse live-cell imaging: 70,000 HeLa cells/chamber were plated in a 4-chamber 35-mm glass-bottom microwell dish ([…]) and cultured at 37° C. for 20-24 hrs. […] Images were taken on a Zeiss LSM880 live-cell confocal/multiphoton inverted microscope, equipped with a 63× oil objective, with 488-nm laser enabled for fluorescein. Images were processed using Fiji software.

The subject of test [3] is SKOV-3 cells. The experiment in a line: Cellular uptake of fluorescein conjugates by flow cytometry, SKOV-3. In kind it is cell-based, human. How it is done:
(§1) After the incubation, cells were washed with PBS and incubated with 200 μL of Trypsin EDTA at 37° C. for 3-5 mins. 1 mL of DMEM with 10% FBS was then added to quench the trypsin. […] Results were analyzed by FlowJo software.
(§2) Mechanism of uptake: The standard uptake procedure was followed with the following changes for each mechanistic condition. Readings were taken on a FACSAria™ Fusion flow cytometry analyzer (Becton Dickinson).
(§3) Temperature dependence: Prior to treatment, fluorescein conjugates were incubated with DMEM with 10% FBS in Eppendorf® tubes for 30 mins at 37° C. or 4° C. Cells were washed with warm (37° C.) or cool (4° C.) PBS for 5 mins. Pre-warmed or pre-cooled fluorescein conjugate solution was then added, and cells were incubated at 37° C. or refrigerated at 4° C. for 1 hr. Following treatment, cells were washed with PBS before addition of Trypsin EDTA.
(§4) Uptake with and without NaN3 and 2-deoxy-D-glucose (DOG): Prior to treatment, cells were washed with PBS. Cells were then incubated with 10 mM NaN3 and 25 mM DOG in DMEM with 10% FBS at 37° C. for 1 hr. Fluorescein conjugates were added, and cells were incubated at 37° C. for another hour. Following treatment, cells were washed with PBS before addition of Trypsin EDTA.
(§5) Uptake with and without chlorpromazine (CPM): Prior to treatment, cells were washed with PBS. […]
On the technique in general: Flow cytometry measures light scatter and fluorescence of single cells or particles in a stream.

The test system of test [4] is HEK293 cells. As to the kind of experiment: Cellular uptake of fluorescein conjugates by flow cytometry, HEK293. The format is cell-based, human. On the procedure:
as §1, §2, §3, §4, §5

For test [5], the system named is J774 cells. The experiment in a line: Uptake of fluorescein cargo by oligoTEAs, flow cytometry, J774. The format is cell-based. The conditions noted are these: 5 μM, 1 hr. How it is done: (§6) After the incubation, cells were washed with PBS. […] Results were analyzed by FlowJo software.
The subject of test [6] is MC-3T3-E1 cells. As to the kind of experiment: Uptake of fluorescein cargo by oligoTEAs, flow cytometry, MC-3T3-E1. In kind it is cell-based. The conditions noted are these: 5 μM, 1 hr. On the procedure:
as §6

Test [7] deals with HeLa cells. As to the kind of experiment: Cellular uptake of fluorescein conjugates by flow cytometry, HeLa. In kind it is cell-based, human. How it is done:
as §1
Dose-dependent uptake: The standard uptake procedure was followed, except that cells were treated with the labeled oligoTEAs at 0.5 μM to 5 μM. All other conditions remained the same.
Uptake kinetics study: The standard uptake procedure was followed, except that cells were treated with fluorescein-PEO^2-B at 2.5 μM for 15-120 mins (minutes). After the incubation, the plate was cells were washed with PBS and incubated with 200 μL of Trypsin EDTA at 37° C. for 3-5 mins. All other conditions remained the same.
as §2
Uptake with and without serum: Prior to treatment, cells were washed with PBS. Cells were then incubated with fluorescein conjugates in either DMEM with 10% FBS or Opti-MEM at 37° C. for 1 hr. Following treatment, cells were washed with PBS before addition of Trypsin EDTA.
Pretreatment with heparin sulfate: Prior to treatment, fluorescein conjugates were incubated with different concentrations of heparin sulfate and DMEM with 10% FBS in Eppendorf® tubes for 30 mins at 37° C. Cells were washed with PBS, and incubated with the treatment solutions at 37° C. for 1 hr. Following treatment, cells were washed with PBS once more before addition of Trypsin EDTA.
as §3, §4
Uptake with and without chlorpromazine (CPM): Prior to treatment, cells were washed with PBS. Cells were then incubated with 5 μg/mL (or 15.7 μM) CPM in DMEM with 10% FBS at 37° C. for 1 hr. Fluorescein conjugates were added, and cells were incubated at 37° C. for another hour. Following treatment, cells were washed with PBS before addition of Trypsin EDTA. […]

Usually inhibition stands for the percentage by which the read-out fell short of the control. As to `O=C(O)c1cn(C2CC2)c2cc(N3CCNCC3)c(F)cc2c1=O` [Ciprofloxacin], the inhibition at 30 µM in test [1] (Listeria monocytogenes, DPL1942, J774, 4 h, read-out: inhibition of bacteria growth) was over 80%.
With fluorescein acid, the “internalization in time-lapse live cell imaging” value in test [2] (2.5 μM, trypan blue present, 60 mins) is “no internalization”.
For the compound `CN[C@H](CC(C)C)C(=O)N[C@H]1C(=O)N[C@@H](CC(N)=O)C(=O)N[C@H]2C(=O)N[C@H]3C(=O)N[C@H](C(=O)N[C@H](C(=O)O)c4cc(O)cc(O)c4-c4cc3ccc4O)[C@H](O)c3ccc(c(Cl)c3)Oc3cc2cc(c3O[C@@H]2O[C@H](CO)[C@@H](O)[C@H](O)[C@H]2O[C@H]2C[C@](C)(N)[C@H](O)[C@H](C)O2)Oc2ccc(cc2Cl)[C@H]1O` [vancomycin], the “inhibition of bacteria growth” value in test [1] (30 μM, 4 hrs treatment, 14th hour of growth curve) is on record as “little to no effect on bacteria growth”.
Regarding “Ac-RRRRRRRRRK-Am (Ac-RRRRRRRRRK-NH2) [R9, widely used cationic CPP, purchased from GenScript]”, the “temperature dependence of uptake, 4° C. vs 37° C.” value in test [3], in test [4] and in test [7] was “weaker dependence on temperature” each time. In addition, the “effect of endocytosis inhibitors on uptake” value in test [4] (chlorpromazine, filipin III, cytochalasin D) was “macropinocytosis in both HEK293 and HeLa cells”; in test [7] (chlorpromazine (clathrin), filipin III (caveolae), cytochalasin D (macropinocytosis)), “dependence on clathrin in HeLa cells and macropinocytosis in both HEK293 and HeLa cells”. Further, the “trend of uptake of fluorescein cargo” value in test [5] and in test [6] was “R9 (PEG-Bu)4>(BDT-PEG)4>(BDT-PEG4)4˜(PEG-PEG)4” throughout. Further, in test [2] (5 μM fluorescein conjugate, 1 hr, 63×), the subcellular distribution entry is “primarily as punctate spots”. In addition, in test [7] (Opti-MEM vs DMEM with 10% FBS), the “increase of uptake in the absence of serum” value is recorded as 2 fold. Further, in test [7] (conjugate pretreated with heparin sulfate 30 mins), the “decrease of uptake in the presence of heparin sulfate” value was found to be 6 fold.

The record behind these values is patent publication US20210308270A1, “SYSTEMS AND METHODS FOR INTRACELLULAR DELIVERY VIA NON-CHARGED SEQUENCE-DEFINED CELL-PENETRATING OLIGOMERS” (priority 2018, published 2021).
